Assay results from PubChem BioAssay AID2060509 (Molecular Pharmacology Branch, DTP, NCI, 2025).

System: 485176-168-R4-J1-PDC spheroids with HUVEC/MSC, viability
Test: Anticancer human tumor 485176-168-R4-J1-PDC patient-derived pancreatic adenocarcinoma cell line growth inhibition [GQUAD]
Conditions: for IC50: curve of first compound; for viability, T/C: stronger effect = lower value
Procedure, shortened: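 Multi-cell-type spheroids of tumor cells with HUVEC and mesenchymal stem cells, treated with drug combinations. Concentrations descend in half-log steps from near clinical Cmax, or from 10 microM where Cmax is unknown; viability read-out.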

[1] = second compound 0.0316 µM, first compound 0.0316 µM
[2] = second compound 0.0316 µM, first compound 0.1 µM
[3] = second compound 0.0316 µM, first compound 0.316 µM
[4] = second compound 0.0316 µM, first compound 1 µM
[5] = second compound 0.0316 µM, first compound 3.16 µM
[6] = second compound 0.0316 µM, first compound 10 µM
[7] = second compound 0.1 µM, first compound 0.0316 µM
[8] = second compound 0.1 µM, first compound 0.1 µM
[9] = second compound 0.1 µM, first compound 0.316 µM
[10] = second compound 0.1 µM, first compound 1 µM
[11] = second compound 0.1 µM, first compound 3.16 µM
[12] = second compound 0.1 µM, first compound 10 µM
[13] = second compound 0.316 µM, first compound 0.0316 µM
[14] = second compound 0.316 µM, first compound 0.1 µM
[15] = second compound 0.316 µM, first compound 0.316 µM
[16] = second compound 0.316 µM, first compound 1 µM
[17] = second compound 0.316 µM, first compound 3.16 µM
[18] = second compound 0.316 µM, first compound 10 µM
[19] = second compound 1 µM, first compound 0.0316 µM
[20] = second compound 1 µM, first compound 0.1 µM
[21] = second compound 1 µM, first compound 0.316 µM
[22] = second compound 1 µM, first compound 1 µM
[23] = second compound 1 µM, first compound 3.16 µM
[24] = second compound 1 µM, first compound 10 µM
[25] = second compound 3.16 µM, first compound 0.0316 µM
[26] = second compound 3.16 µM, first compound 0.1 µM
[27] = second compound 3.16 µM, first compound 0.316 µM
[28] = second compound 3.16 µM, first compound 1 µM
[29] = second compound 3.16 µM, first compound 3.16 µM
[30] = second compound 3.16 µM, first compound 10 µM
[31] = second compound 10 µM, first compound 0.0316 µM
[32] = second compound 10 µM, first compound 0.1 µM
[33] = second compound 10 µM, first compound 0.316 µM
[34] = second compound 10 µM, first compound 1 µM
[35] = second compound 10 µM, first compound 3.16 µM
[36] = second compound 10 µM, first compound 10 µM
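Further: spheroids exposed to compounds for seven days before readout.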
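Wherever viability, T/C is given: percent viability relative to DMSO vehicle control wells as 100%.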

For `O=C(NO)c1cnc(N2CCN(S(=O)(=O)c3ccc4ccccc4c3)CC2)nc1` + Cc1[nH]c2ccc(F)cc2c1-c1nc2c3cccnc3c3ncccc3c2[nH]1, the IC50 (second compound 0.0316 µM) was 511 nM, the IC50 (second compound 0.1 µM) was 597 nM and the IC50 (second compound 0.316 µM) was 557 nM. It also gave an IC50 (second compound 1 µM) of 592 nM, an IC50 (second compound 3.16 µM) of 1030 nM and an IC50 (second compound 10 µM) of 1020 nM. The viability, T/C [1] was 94.1%, the viability, T/C [2] was 86.3% and the viability, T/C [3] was 70.8%. The viability, T/C [4] was 21.8%, the viability, T/C [5] was 0.24% and the viability, T/C [6] was 0.23%. It also gave a viability, T/C [7] of 90.3%, a viability, T/C [8] of 98.4% and a viability, T/C [9] of 80.4%. For the same molecule, the viability, T/C [10] was 25.1%, the viability, T/C [11] was 0.3% and the viability, T/C [12] was 0.19%. It also gave a viability, T/C [13] of 122%, a viability, T/C [14] of 87.5% and a viability, T/C [15] of 67.1%. For the same molecule, the viability, T/C [16] was 42.8%, the viability, T/C [17] was 0.2% and the viability, T/C [18] was 0.18%. It also gave a viability, T/C [19] of 94.2%, a viability, T/C [20] of 84.7% and a viability, T/C [21] of 68%. For the same molecule, the viability, T/C [22] was 37.6%, the viability, T/C [23] was 0.32% and the viability, T/C [24] was 0.18%. For the same molecule, the viability, T/C [25] was 87.9%, the viability, T/C [26] was 79.9% and the viability, T/C [27] was 73.5%. For the same molecule, the viability, T/C [28] was 52.3%, the viability, T/C [29] was 0.29% and the viability, T/C [30] was 0.21%. It also gave a viability, T/C [31] of 88.2%, a viability, T/C [32] of 71.7% and a viability, T/C [33] of 75.6%. For the same molecule, the viability, T/C [34] was 50.9%, the viability, T/C [35] was 0.27% and the viability, T/C [36] was 0.37%.

`C#Cc1c(F)ccc2cc(O)cc(-c3ncc4c(N5CC6CCC(C5)N6)nc(OCC56CCCN5CC(F)C6)nc4c3F)c12` (stereo not drawn) + Cc1cnc(CNC(=O)c2c(=O)c3ccc(N4CCCN(C)CC4)nc3n3c2sc2ccccc23)cn1 showed an IC50 (second compound 0.0316 µM) greater than 10000 nM, an IC50 (second compound 0.1 µM) greater than 10000 nM and an IC50 (second compound 0.316 µM) greater than 10000 nM. For the same molecule, the IC50 (second compound 1 µM) was less than 31.6 nM, the IC50 (second compound 3.16 µM) was less than 31.6 nM and the IC50 (second compound 10 µM) was less than 31.6 nM. It also gave a viability, T/C [1] of 97%, a viability, T/C [2] of 89.9% and a viability, T/C [3] of 97.7%. For the same molecule, the viability, T/C [4] was 81%, the viability, T/C [5] was 91.9% and the viability, T/C [6] was 87.8%. For the same molecule, the viability, T/C [7] was 78.4%, the viability, T/C [8] was 80% and the viability, T/C [9] was 68.4%. The viability, T/C [10] was 72.3%, the viability, T/C [11] was 72.8% and the viability, T/C [12] was 76.3%. It also gave a viability, T/C [13] of 59.3%, a viability, T/C [14] of 60% and a viability, T/C [15] of 62.3%. For the same molecule, the viability, T/C [16] was 61.6%, the viability, T/C [17] was 63.3% and the viability, T/C [18] was 50.9%. For the same molecule, the viability, T/C [19] was 45.2%, the viability, T/C [20] was 50.1% and the viability, T/C [21] was 48.6%. It also gave a viability, T/C [22] of 50.3%, a viability, T/C [23] of 45.7% and a viability, T/C [24] of 50.5%. For the same molecule, the viability, T/C [25] was 44%, the viability, T/C [26] was 44.7% and the viability, T/C [27] was 44.4%. The viability, T/C [28] was 38.1%, the viability, T/C [29] was 48.7% and the viability, T/C [30] was 44.6%. For the same molecule, the viability, T/C [31] was 40.5%, the viability, T/C [32] was 40.4% and the viability, T/C [33] was 36.4%. The viability, T/C [34] was 35.1%, the viability, T/C [35] was 37.5% and the viability, T/C [36] was 37.4%.

Molecule `CC[C@@]1(O)C(=O)OCc2c1cc1n(c2=O)Cc2cc3c(CN(C)C)c(O)ccc3nc2-1` + CN(C)c1ccc(Nc2c3ccc(NC(=O)CCN4CCCC4)cc3nc3cc(NC(=O)CCN4CCCC4)ccc23)cc1 has an IC50 (second compound 0.0316 µM) of 180 nM, an IC50 (second compound 0.1 µM) of 185 nM and an IC50 (second compound 0.316 µM) of 168 nM. The IC50 (second compound 1 µM) was 191 nM, the IC50 (second compound 3.16 µM) was 128 nM and the IC50 (second compound 10 µM) was 232 nM. For the same molecule, the viability, T/C (second compound 0.0316 µM, first compound 0.000999 µM) was 97.9%, the viability, T/C (second compound 0.0316 µM, first compound 0.00316 µM) was 88.1% and the viability, T/C (second compound 0.0316 µM, first compound 0.00999 µM) was 83.8%. For the same molecule, the viability, T/C [1] was 90.6%, the viability, T/C (second compound 0.0316 µM, first compound 0.0999 µM) was 65% and the viability, T/C [3] was 35.6%. The viability, T/C (second compound 0.1 µM, first compound 0.000999 µM) was 94.8%, the viability, T/C (second compound 0.1 µM, first compound 0.00316 µM) was 106% and the viability, T/C (second compound 0.1 µM, first compound 0.00999 µM) was 95.9%. For the same molecule, the viability, T/C [7] was 81%, the viability, T/C (second compound 0.1 µM, first compound 0.0999 µM) was 64.5% and the viability, T/C [9] was 38.4%. The viability, T/C (second compound 0.316 µM, first compound 0.000999 µM) was 97.3%, the viability, T/C (second compound 0.316 µM, first compound 0.00316 µM) was 117% and the viability, T/C (second compound 0.316 µM, first compound 0.00999 µM) was 107%. For the same molecule, the viability, T/C [13] was 99.1%, the viability, T/C (second compound 0.316 µM, first compound 0.0999 µM) was 55.7% and the viability, T/C [15] was 43.1%. The viability, T/C (second compound 1 µM, first compound 0.000999 µM) was 89.1%, the viability, T/C (second compound 1 µM, first compound 0.00316 µM) was 97.7% and the viability, T/C (second compound 1 µM, first compound 0.00999 µM) was 99.1%. For the same molecule, the viability, T/C [19] was 81.1%, the viability, T/C (second compound 1 µM, first compound 0.0999 µM) was 69.5% and the viability, T/C [21] was 35.8%. For the same molecule, the viability, T/C (second compound 3.16 µM, first compound 0.000999 µM) was 104%, the viability, T/C (second compound 3.16 µM, first compound 0.00316 µM) was 99.7% and the viability, T/C (second compound 3.16 µM, first compound 0.00999 µM) was 87.2%. The viability, T/C [25] was 76.6%, the viability, T/C (second compound 3.16 µM, first compound 0.0999 µM) was 52.6% and the viability, T/C [27] was 35.5%. The viability, T/C (second compound 10 µM, first compound 0.000999 µM) was 108%, the viability, T/C (second compound 10 µM, first compound 0.00316 µM) was 98.6% and the viability, T/C (second compound 10 µM, first compound 0.00999 µM) was 88.3%. For the same molecule, the viability, T/C [31] was 94.6%, the viability, T/C (second compound 10 µM, first compound 0.0999 µM) was 63.5% and the viability, T/C [33] was 44%.

`CC1COCCN1c1cc(C2(S(C)(=N)=O)CC2)nc(-c2ccnc3[nH]ccc23)n1` (stereo not drawn) + Cc1[nH]c2ccc(F)cc2c1-c1nc2c3cccnc3c3ncccc3c2[nH]1 gave an IC50 (second compound 0.0316 µM) of 1350 nM, an IC50 (second compound 0.1 µM) of 1840 nM and an IC50 (second compound 0.316 µM) of 1830 nM. It also gave an IC50 (second compound 1 µM) of 1910 nM, an IC50 (second compound 3.16 µM) of 1260 nM and an IC50 (second compound 10 µM) of 1240 nM. The viability, T/C [1] was 110%, the viability, T/C [2] was 90.4% and the viability, T/C [3] was 97.8%. For the same molecule, the viability, T/C [4] was 53.6%, the viability, T/C [5] was 32% and the viability, T/C [6] was 15.5%. For the same molecule, the viability, T/C [7] was 89.4%, the viability, T/C [8] was 103% and the viability, T/C [9] was 85.5%. For the same molecule, the viability, T/C [10] was 69.9%, the viability, T/C [11] was 32.7% and the viability, T/C [12] was 16.4%. It also gave a viability, T/C [13] of 88.3%, a viability, T/C [14] of 103% and a viability, T/C [15] of 84.8%. For the same molecule, the viability, T/C [16] was 66.9%, the viability, T/C [17] was 35.2% and the viability, T/C [18] was 14.1%. For the same molecule, the viability, T/C [19] was 92%, the viability, T/C [20] was 97.3% and the viability, T/C [21] was 96.5%. For the same molecule, the viability, T/C [22] was 66.7%, the viability, T/C [23] was 36.4% and the viability, T/C [24] was 13.7%. It also gave a viability, T/C [25] of 83.5%, a viability, T/C [26] of 89.9% and a viability, T/C [27] of 75.5%. The viability, T/C [28] was 57.6%, the viability, T/C [29] was 24.7% and the viability, T/C [30] was 14.7%. The viability, T/C [31] was 84.7%, the viability, T/C [32] was 104% and the viability, T/C [33] was 80.9%. The viability, T/C [34] was 55.6%, the viability, T/C [35] was 26.4% and the viability, T/C [36] was 13.8%.
